This note sets out measurements from ChEMBL document CHEMBL1201862, “PubChem BioAssay data set” (2004).

Among the test systems are HOP-62; NCI-H23; A498; SK-MEL-5; K562; SNB-19; OVCAR-3; OVCAR-5; NCI/ADR-RES; HCT-116; SF-268; SK-OV-3; NCI-H522; SF-295; CCRF-CEM; HL-60; SNB-75; UACC-62; HCC 2998; RXF 393.
Test in all cases: growth of human tumour cells (NCI), 48 h

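Each compound was tested at five concentrations against cells in 96-well plates for 48 hours. GI50: concentration for 50% inhibition of growth.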 The source made the active and inactive calls. No stated cut-off is given here; in the data, active = GI50 up to about 1.1 µM and inactive = higher. Where only a bound is given, the exact number is not on record here.

Take `CN(CCO)CCC1COc2ccccc2O1` (stereo not given): the GI50 with HOP-62, in the assay with NCI-H23, in the assay with A498, in the assay on SK-MEL-5, in the assay with K562 and in the assay with SNB-19 was > 10 µM (inactive) each time. In addition, the GI50 in the assay with OVCAR-3, in the assay on OVCAR-5, with NCI/ADR-RES, in the assay on HCT-116, with SF-268 and with SK-OV-3 was > 10 µM (inactive) each time. Besides, the GI50 is 2.21 µM (inactive) in the assay with NCI-H522; > 10 µM (inactive) in the assay on SF-295; > 10 µM (inactive) with CCRF-CEM; > 10 µM (inactive) in the assay with HL-60; > 10 µM (inactive) in the assay on SNB-75; > 10 µM (inactive) with UACC-62. Moreover, the GI50 in the assay with HCC 2998 is > 10 µM (inactive); with RXF 393, 7.98 µM (inactive).
As for `O=C(Nc1ccc(C2=NCCN2)cc1)c1cncc(C(=O)Nc2ccc(C3=NCCN3)cc2)c1`, the GI50 in the assay on HOP-62, in the assay on NCI-H23, in the assay with A498, in the assay on SK-MEL-5, in the assay with K562 and in the assay with SNB-19 was > 100 µM (inactive) throughout. Further, the GI50 in the assay on OVCAR-3 was > 100 µM (inactive); in the assay with OVCAR-5 it was > 100 µM (inactive); in the assay on NCI/ADR-RES, > 100 µM (inactive); in the assay on HCT-116 it was > 100 µM (inactive); in the assay on SF-268, > 31.6 µM (inactive); in the assay with SK-OV-3, > 100 µM (inactive). Also, the GI50 in the assay on NCI-H522 is > 100 µM (inactive); in the assay on SF-295, > 100 µM (inactive); with CCRF-CEM it was > 100 µM (inactive); in the assay with HL-60, > 100 µM (inactive); with SNB-75, > 31.6 µM (inactive); in the assay with UACC-62, > 100 µM (inactive). Besides, the GI50 in the assay with HCC 2998 and with RXF 393 was > 100 µM (inactive) in each case.
As to `N#CSCC1COc2ccccc2O1` (stereo not given), the GI50 with HOP-62 was > 10 µM (inactive); with NCI-H23, > 10 µM (inactive); in the assay with A498 it was > 10 µM (inactive); with SK-MEL-5 it was 6.87 µM (inactive); in the assay on K562, 1.77 µM (inactive); in the assay with SNB-19, > 10 µM (inactive). Besides, the GI50 was > 10 µM (inactive) in the assay on OVCAR-3; > 10 µM (inactive) in the assay with OVCAR-5; > 10 µM (inactive) with NCI/ADR-RES; 5.92 µM (inactive) in the assay on HCT-116; > 10 µM (inactive) with SF-268; > 10 µM (inactive) with SK-OV-3. Further, the GI50 in the assay on NCI-H522 was 2.62 µM (inactive); in the assay on SF-295, > 10 µM (inactive); in the assay with CCRF-CEM, 0.628 µM (active); with HL-60, 2.55 µM (inactive); in the assay with SNB-75, > 10 µM (inactive); in the assay on UACC-62 it was > 10 µM (inactive). The GI50 in the assay with HCC 2998 and in the assay with RXF 393 was > 10 µM (inactive) each time.
Turning to `CCC1CN2CCC1CC2` (stereo not given), the GI50 in the assay with HOP-62, with NCI-H23, in the assay on A498, with SK-MEL-5, in the assay on K562 and in the assay on SNB-19 was > 100 µM (inactive) throughout. Also, the GI50 with OVCAR-3, in the assay with OVCAR-5, with NCI/ADR-RES, in the assay on HCT-116, with SF-268 and in the assay on SK-OV-3 was > 100 µM (inactive) throughout. In addition, the GI50 with NCI-H522, in the assay with SF-295, with CCRF-CEM, with HL-60, in the assay with SNB-75 and in the assay on UACC-62 was > 100 µM (inactive) in each case. The GI50 in the assay with HCC 2998 and in the assay on RXF 393 was > 100 µM (inactive) in each case.
Turning to `CC(NNC(=O)c1cc[n+]([BH2-]C#N)cc1)c1ccc(F)cc1` (stereo not given), the GI50 with HOP-62, in the assay with NCI-H23, in the assay on A498, with SK-MEL-5, in the assay on K562 and in the assay on SNB-19 was > 100 µM (inactive) in each case. Besides, the GI50 in the assay on OVCAR-3, in the assay on OVCAR-5, in the assay with NCI/ADR-RES, with HCT-116, with SF-268 and in the assay with SK-OV-3 was > 100 µM (inactive) throughout. Further, the GI50 in the assay with NCI-H522, in the assay on SF-295, with CCRF-CEM, in the assay with HL-60, in the assay on SNB-75 and in the assay on UACC-62 was > 100 µM (inactive) in each case. Moreover, the GI50 with HCC 2998 and with RXF 393 was > 100 µM (inactive) throughout.
As for `COC(=O)[C@@H]1c2cc3c(c(O)c2[C@@H](OC)C[C@@]1(C)O)C(=O)c1c(O)cc2c(c1C3=O)OC1O[C@@]2(C)[C@H](O)[C@@H](N(C)C)[C@@H]1O`, the GI50 is 0.198 µM (active) in the assay on HOP-62; 0.428 µM (active) with NCI-H23; 0.257 µM (active) in the assay on A498; 0.364 µM (active) in the assay on SK-MEL-5; 0.322 µM (active) with K562; 0.337 µM (active) with SNB-19. The GI50 with OVCAR-3 was 0.361 µM (active); in the assay with OVCAR-5, 0.508 µM (active); in the assay on NCI/ADR-RES, 2.06 µM (inactive); with HCT-116, 0.261 µM (active); in the assay with SF-268 it was 0.528 µM (active); in the assay with SK-OV-3, 0.522 µM (active). Moreover, the GI50 was 0.445 µM (active) in the assay on NCI-H522; 0.213 µM (active) in the assay on SF-295; 0.273 µM (active) in the assay on CCRF-CEM; 0.142 µM (active) in the assay on HL-60; 0.245 µM (active) in the assay with SNB-75; 0.223 µM (active) in the assay with UACC-62. In addition, the values for the GI50 in the assay with HCC 2998 and in the assay on RXF 393 were 0.251 µM (active) and 0.381 µM (active), respectively.
As to `Cn1c2ccccc2c(=O)c2c(O)cc3c(c21)C=CC(C)(C)O3` [NORACRONYCINE], the GI50 is > 25 µM (inactive) with HOP-62; > 25 µM (inactive) with NCI-H23; > 13.5 µM (inactive) with A498; > 25 µM (inactive) in the assay on SK-MEL-5; > 25 µM (inactive) in the assay on K562; 9.31 µM (inactive) in the assay on SNB-19. For the same compound, the GI50 with OVCAR-3, in the assay on OVCAR-5, in the assay with NCI/ADR-RES, in the assay on HCT-116, in the assay on SF-268 and in the assay on SK-OV-3 was > 25 µM (inactive) throughout. Further, the GI50 in the assay with NCI-H522 was > 25 µM (inactive); in the assay on SF-295, > 25 µM (inactive); with CCRF-CEM it was > 25 µM (inactive); in the assay on HL-60 it was > 11.1 µM (inactive); in the assay on SNB-75 it was > 16.8 µM (inactive); in the assay on UACC-62 it was > 25 µM (inactive). In addition, the GI50 with HCC 2998 is > 25 µM (inactive); in the assay on RXF 393, > 10.2 µM (inactive).
